Test results as given in paper PMC11121064 (International Journal of Molecular Sciences, 2024).

Legend:
[1] = test system: melanoma A375 tumor cell line; test: MTT reduction assay, A375 melanoma cells; format: cell-based, human; settings: for effect on A375 cell viability: 72 h of exposure; for IC50: MTT, 72 h
Description: (§1) The cytotoxic activity was measured against the melanoma A375 tumor cell line (ECACC) and the human BJ fibroblast cell line (ATCC) using an MTT reduction assay. The selectivity index (SI) was calculated using the following formula: SI = IC50 (BJ)/ IC50 (A375).
The A375 cell line was purchased from the European Collection of Authenticated Cell Cultures (ECACC, Salisbury, UK) and the BJ human fibroblast cell line from the American Type Culture Collection (ATCC, Manassas, VA, USA). All the cell lines were grown as a monolayer in standard conditions: 37 °C, 100% humidity, under an atmosphere of 5% CO2. […] The BJ cell line was grown in EMEM with EBSS, NEAA and sodium pyruvate with L-Glutamine supplemented, 10% fetal bovine serum and 50 IU/mL penicillin/streptomycin.
(§2) Next, the cells were seeded in 96-well plates at a density of 5000 cells per well and incubated overnight to reach the logarithmic growth phase. […] After 72 h, 10 µL of MTT solution (5 g/L) was added into each well and incubated for an additional four hours. Subsequently, the medium was removed, and 100 µL of dimethyl sulfoxide (DMSO) was added into each well. The absorbance was then measured at 570 nm using a SPECTROstar Nano microplate reader (BMG Biotech Inc., Cary, NC, USA)/Tecan Spark 10M. The mean value from three independent BJ and A375 cell cultures was taken to calculate the cell viability, expressed as a percentage of the control values, i.e., untreated cells assumed as 100%.

[2] = test system: human BJ fibroblast cell line; test: MTT reduction assay, BJ fibroblasts; format: cell-based; settings: 72 h
Description: as §1
The A375 cell line was purchased from the European Collection of Authenticated Cell Cultures (ECACC, Salisbury, UK) and the BJ human fibroblast cell line from the American Type Culture Collection (ATCC, Manassas, VA, USA). All the cell lines were grown as a monolayer in standard conditions: 37 °C, 100% humidity, under an atmosphere of 5% CO2. The A375 cells were cultured in Dulbecco’s Modified Eagle Medium supplemented with 15% fetal calf serum and 50 IU/mL penicillin/streptomycin. The BJ cell line was grown in EMEM with EBSS, NEAA and sodium pyruvate with L-Glutamine supplemented, 10% fetal bovine serum and 50 IU/mL penicillin/streptomycin.
as §2

[3] = test system: clot formation and fibrinolysis in human citrate plasma; test: Clot formation and fibrinolysis test (CL-test); settings: for CLAUC overall potential for clot formation and fibrinolysis / Fmax maximum clotting / Fvo initial plasma clotting velocity / Lmax maximum lysis / Lvo initial clot fibrinolysis velocity / Sc area under the curve of stable clot formation / Sf area under the fibrinolysis curve / Sr area under the clot formation curve / Tc clot stabilization time / Tf plasma clotting time / Tl fibrinolysis time / Tt thrombin time: mean, n = 3
Description: Following this, the impact of the tested complex compounds and their ligands on the overall clot formation and fibrinolysis potential (CLAUC) and individual kinetic parameters was assessed using the CL-test. The analysis was performed using plasma from three different donors.
The blood samples used were residual materials from routine diagnostic studies, destined for disposal as medical waste. […] Platelet-poor plasma (PPP) and red blood cells were obtained using centrifugation at 3000× g for 10 min at room temperature using a Mikro 22R centrifuge (Hettich Zentrifugen, Tuttlingen, Germany). The plasma was used for the hemostasis tests. Before use, the centrifuged erythrocyte mass was washed three times with physiological saline solution to remove the plasma protein residues and other blood cells.
The influence of the compounds on the overall hemostasis potential was determined using the CL-test through continuous measurement of changes in optical transmittance, as described previously [53, 54]. The experiments were conducted using three-fold diluted human citrate plasma, t-PA and thrombin. […] The results are presented as means ± SD (n = 3). The curves were used to determine the kinetic parameters of clot formation, stabilization and fibrinolysis using dedicated software [51]. The following parameters of clot formation were determined: Tt—thrombin time (s), Fmax—maximum clotting (%T), Tf—plasma clotting time (s), Fvo—initial plasma clotting velocity (%T/min), Sr—area under the clot formation curve (%Txmin). The parameters of the clot stabilization phase comprised Tc—clot stabilization time (s) and Sc—area under the curve of stable clot formation (%Txmin). The parameters of fibrinolysis comprised Lmax—maximum lysis (%T), Tl—fibrinolysis time (s), Lvo—initial clot fibrinolysis velocity (%T/min) and Sf—area under the fibrinolysis curve (%Txmin). Additionally, the overall potential for clot formation and fibrinolysis, i.e., CLAUC (%Txmin), was also estimated.

[4] = test system: extrinsic coagulation pathway; test: Prothrombin time (PT) and INR in human citrated plasma; settings: up to 100 µmol/L; reference PT 9.7–14.6 s, INR 0.8–1.2
Description: The first stage assessed the changes in plasma hemostasis occurring under the influence of the five test compounds. Plasma was incubated with the tested compounds and ligands at six different concentrations ranging from 0.5 to 100 µmol/L. The plasma was obtained from five different volunteers. To evaluate the impact on the extrinsic coagulation pathway, the prothrombin time (PT) was determined in human citrated plasma, expressed in seconds and as the international normalized ratio (INR) (Figure 6 and Figure 7).
The plasma was used for the hemostasis tests.
The results are presented as means ± standard deviation (SD).

With `N.N.[Cl][Pt][Cl]` [Cisplatin, cisplatin] the “effect on A375 cell viability” value [1] was “dose-dependent cytotoxic effect”, the IC50 [1] was 8.5 ± 0.3 µM and the IC50 [2] was 24 ± 0.8 µM.

With `Cc1ncc([N+](=O)[O-])n1CCO` [MTZ, metronidazole] the “effect on CLAUC and kinetic parameters of clot formation and lysis” value ([3]; entire concentration range 0.5–100 µmol/L) was “no significant differences”, the IC50 ([1]; Homo sapiens, A-375) was greater than 100 µM and the IC50 ([2]; Homo sapiens, Fibroblast) was greater than 100 µM.

`Cc1ncc([N+](=O)[O-])n1CCO.Cc1ncc([N+](=O)[O-])n1CCO.O=[N+]([O-])[O-].[Ag+]` [[(MTZ)2AgNO3]] was tested, and the “prolongation of PT and INR beyond the reference range” value [4] was “do not cause pathological prolongation”, the “CLAUC overall potential for clot formation and fibrinolysis” value (“CLAUC overall potential” below) ([3]; 0.5 µmol/L) was 287.9 %*min and the Fmax maximum clotting ([3]; 0.5 µmol/L) was 64.4%. The “Fvo initial plasma clotting velocity” value ([3]; 0.5 µmol/L) was 126.7 %/min, the Lmax maximum lysis ([3]; 0.5 µmol/L) was 61.9% and the “Lvo initial clot fibrinolysis velocity” value ([3]; 0.5 µmol/L) was 20.9 %/min. For the same compound, the “Sc area under the curve of stable clot formation” value (“Sc area under the curve” below) ([3]; 0.5 µmol/L) was 118.4 %*min, the “Sf area under the fibrinolysis curve” value ([3]; 0.5 µmol/L) was 125.5 %*min and the “Sr area under the clot formation curve” value ([3]; 0.5 µmol/L) was 44.1 %*min. The “Tc clot stabilization time” value ([3]; 0.5 µmol/L) was 114.3 s, the “Tf plasma clotting time” value ([3]; 0.5 µmol/L) was 61.9 s and the Tl fibrinolysis time ([3]; 0.5 µmol/L) was 158.7 s. For the same compound, the Tt thrombin time ([3]; 0.5 µmol/L) was 21.3 s, the “CLAUC overall potential” value ([3]; 1.0 µmol/L) was 275.7 %*min and the Fmax maximum clotting ([3]; 1.0 µmol/L) was 62.2%. For the same compound, the “Fvo initial plasma clotting velocity” value ([3]; 1.0 µmol/L) was 126.3 %/min, the Lmax maximum lysis ([3]; 1.0 µmol/L) was 61.5% and the “Lvo initial clot fibrinolysis velocity” value ([3]; 1.0 µmol/L) was 19.5 %/min. For the same compound, the “Sc area under the curve” value ([3]; 1.0 µmol/L) was 125.5 %*min, the “Sf area under the fibrinolysis curve” value ([3]; 1.0 µmol/L) was 105.1 %*min and the “Sr area under the clot formation curve” value ([3]; 1.0 µmol/L) was 45.1 %*min. The “Tc clot stabilization time” value ([3]; 1.0 µmol/L) was 124.7 s, the “Tf plasma clotting time” value ([3]; 1.0 µmol/L) was 65.9 s and the Tl fibrinolysis time ([3]; 1.0 µmol/L) was 175.0 s. The Tt thrombin time ([3]; 1.0 µmol/L) was 21.6 s, the “CLAUC overall potential” value ([3]; 5.0 µmol/L) was 343.6 %*min and the Fmax maximum clotting ([3]; 5.0 µmol/L) was 70.7%. For the same compound, the “Fvo initial plasma clotting velocity” value ([3]; 5.0 µmol/L) was 157.7 %/min, the Lmax maximum lysis ([3]; 5.0 µmol/L) was 70.5% and the “Lvo initial clot fibrinolysis velocity” value ([3]; 5.0 µmol/L) was 21.9 %/min. The “Sc area under the curve” value ([3]; 5.0 µmol/L) was 169.8 %*min, the “Sf area under the fibrinolysis curve” value ([3]; 5.0 µmol/L) was 129.1 %*min and the “Sr area under the clot formation curve” value ([3]; 5.0 µmol/L) was 44.7 %*min. The “Tc clot stabilization time” value ([3]; 5.0 µmol/L) was 146.7 s, the “Tf plasma clotting time” value ([3]; 5.0 µmol/L) was 59.4 s and the Tl fibrinolysis time ([3]; 5.0 µmol/L) was 199.0 s. The Tt thrombin time ([3]; 5.0 µmol/L) was 19.2 s, the “CLAUC overall potential” value ([3]; 10.0 µmol/L) was 284.4 %*min and the Fmax maximum clotting ([3]; 10.0 µmol/L) was 61.4%. For the same compound, the “Fvo initial plasma clotting velocity” value ([3]; 10.0 µmol/L) was 121.6 %/min, the Lmax maximum lysis ([3]; 10.0 µmol/L) was 60.2% and the “Lvo initial clot fibrinolysis velocity” value ([3]; 10.0 µmol/L) was 19.5 %/min. The “Sc area under the curve” value ([3]; 10.0 µmol/L) was 126.7 %*min, the “Sf area under the fibrinolysis curve” value ([3]; 10.0 µmol/L) was 117.2 %*min and the “Sr area under the clot formation curve” value ([3]; 10.0 µmol/L) was 40.5 %*min. For the same compound, the “Tc clot stabilization time” value ([3]; 10.0 µmol/L) was 126.7 s, the “Tf plasma clotting time” value ([3]; 10.0 µmol/L) was 62.3 s and the Tl fibrinolysis time ([3]; 10.0 µmol/L) was 180.3 s. The Tt thrombin time ([3]; 10.0 µmol/L) was 23.3 s, the “CLAUC overall potential” value ([3]; 50.0 µmol/L) was 280.7 %*min and the Fmax maximum clotting ([3]; 50.0 µmol/L) was 63.8%. The “Fvo initial plasma clotting velocity” value ([3]; 50.0 µmol/L) was 129.0 %/min, the Lmax maximum lysis ([3]; 50.0 µmol/L) was 61.8% and the “Lvo initial clot fibrinolysis velocity” value ([3]; 50.0 µmol/L) was 22.0 %/min. For the same compound, the “Sc area under the curve” value ([3]; 50.0 µmol/L) was 123.25 %*min, the “Sf area under the fibrinolysis curve” value ([3]; 50.0 µmol/L) was 118.6 %*min and the “Sr area under the clot formation curve” value ([3]; 50.0 µmol/L) was 38.9 %*min. The “Tc clot stabilization time” value ([3]; 50.0 µmol/L) was 119.3 s, the “Tf plasma clotting time” value ([3]; 50.0 µmol/L) was 56.9 s and the Tl fibrinolysis time ([3]; 50.0 µmol/L) was 164.7 s. The Tt thrombin time ([3]; 50.0 µmol/L) was 22.5 s, the “CLAUC overall potential” value ([3]; 100.0 µmol/L) was 318.6 %*min and the Fmax maximum clotting ([3]; 100.0 µmol/L) was 68.6%. For the same compound, the “Fvo initial plasma clotting velocity” value ([3]; 100.0 µmol/L) was 124.9 %/min, the Lmax maximum lysis ([3]; 100.0 µmol/L) was 67.2% and the “Lvo initial clot fibrinolysis velocity” value ([3]; 100.0 µmol/L) was 29.6 %/min. For the same compound, the “Sc area under the curve” value ([3]; 100.0 µmol/L) was 146.3 %*min, the “Sf area under the fibrinolysis curve” value ([3]; 100.0 µmol/L) was 131.8 %*min and the “Sr area under the clot formation curve” value ([3]; 100.0 µmol/L) was 40.4 %*min. For the same compound, the “Tc clot stabilization time” value ([3]; 100.0 µmol/L) was 131.3 s, the “Tf plasma clotting time” value ([3]; 100.0 µmol/L) was 59.2 s and the Tl fibrinolysis time ([3]; 100.0 µmol/L) was 188.7 s. For the same compound, the Tt thrombin time ([3]; 100.0 µmol/L) was 22.4 s, the IC50 [1] was 3 ± 0.3 µM and the IC50 [2] was 46 ± 1.6 µM.

`Clc1ccc(COC(Cn2ccnc2)c2ccc(Cl)cc2Cl)c(Cl)c1.Clc1ccc(COC(Cn2ccnc2)c2ccc(Cl)cc2Cl)c(Cl)c1.[Ag+].[F][Sb-]([F])([F])([F])([F])[F]` (stereo not drawn) [[Ag(MCZ)2SbF6]] gave an IC50 [1] of 18.5 ± 2.4 µM and an IC50 [2] of 16 ± 0.9 µM.

`Clc1ccc(COC(Cn2ccnc2)c2ccc(Cl)cc2Cl)c(Cl)c1` (stereo not drawn) [MCZ, miconazole] was tested, and the “effect on A375 cell viability” value [1] was “dose-dependent reduction”.
